According to PubChem BioAssay AID1963967 (Molecular Pharmacology Branch, DTP, NCI, 2024):
pIC50: −log10 of the molar value.

Test system: 855422-203-R-J1-PDC spheroids with HUVEC/MSC, viability
Assay: Anticancer human tumor 855422-203-R-J1-PDC patient-derived bladder carcinoma cell line growth inhibition [PI3K]
Details: for pIC50: curve of first compound; for viability, T/C: stronger effect = lower value
Source text: Combinatorial screen of targeted agents with the PI3K inhibitors inavolisib, alpelisib, duvelisib, and copanlisib in multi-cell type tumor spheroids
A high-throughput screen of multi-cell type tumor spheroids was designed to identify active combinations of targeted small molecules and PI3K pathway inhibitors. Complex spheroids include a stromal component modeled by human endothelial cells (HUVEC) and fibroblasts modeled by human mesenchymal stem cells (MSCs). The concentration ranges selected for each drug and investigational agent were based upon clinically achievable concentrations if the clinical Cmax of the agent was known.
Compounds. The drugs and investigational agents: inavolisib (NSC800729), alpelisib (NSC765974), duvelisib (NSC772469), copanlisib (NSC816437), ipatasertib (NSC767898), afuresertib (NSC778305), talazoparib (NSC767125), sapanisertib (NSC764658), selumetinib (NSC741078), tovorafenib (DAY101, NSC766906), vemurafenib (NSC761431), ravoxertinib (NSC781343), sotorasib (NSC818433), MRTX1133 (NSC 836407), abemaciclib (NSC 768073), palbociclib (NSC758247), venetoclax (NSC 766270), SY5609 (NSC837396), enzalutamide (NSC755605), and darolutamide (NSC825331), were obtained from the National Cancer Institute (NCI) Developmental Therapeutics Program Chemical Repository. The FDA-approved anticancer drug set is available from the NCI Developmental Therapeutics Program. […] The stock solutions were prepared in dimethyl sulfoxide (DMSO, Sigma-Aldrich, St. Louis, MO, cat. D2650) at 800-fold the tested concentration and stored at -70 degrees C prior to their use. All drugs and investigational agents were tested over a range starting from a high concentration at or near the clinical Cmax and decreasing in half-log increments. If the clinical Cmax for an agent had not been determined, the highest concentration tested was 10 microM.
Cell Culture. All cells were maintained in an incubator at 37 degrees C and 5% CO2 with 95% humidity. The PDC lines were cultured according to standard operating procedures established by the NCI PDMR (https://pdmr.cancer.gov/sops/default.htm). All PDCs were thawed and cultured in Matrigel-coated flasks prepared with a working solution of 1X Ham's F-12 nutrient mix, without supplementation (Invitrogen, Waltham, MA, cat. 11765054), 100 U/mL penicillin-streptomycin (Invitrogen, cat. 15140122), and 2.5% Matrigel (Corning Inc., Corning, NY, cat. 354248) for the first three passages. The 354836-022-R-J1-PDC, 475296-252-R-J1-PDC, and 997726-040-R-J2-PDC lines were cultured in 6A media, which includes advanced DMEM/F-12 (Thermo Fisher Scientific, cat. 12634028), 10 mM HEPES (Thermo Fisher Scientific, cat. 15630080), 1X GlutaMAX supplement (Thermo Fisher Scientific, cat. 35050061), 0.1 mg/mL primocin (InvivoGen, San Diego, CA, cat. ant-pm-2), 10% defined fetal bovine serum, heat inactivated (HyClone Laboratories Inc., Logan, UT, cat. SH30070.03HI), 50% L-WRN conditioned media (ATCC, cat. CRL-3276), 1.25 mM N-Acetyl-L-cysteine (Sigma-Aldrich, cat. A9165), 10 mM nicotinamide (Sigma-Aldrich, cat. N0636), 1X B-27 supplement (Thermo Fisher Scientific, cat. 17504044), 1X N-2 supplement (Thermo Fisher Scientific, cat. 17502048), and 10 microM Y-27632 dihydrochloride (Tocris Bioscience, Bristol, United Kingdom, cat. 1254). The 624824-186-R-J2-PDC line was cultured in 6C/Colon 1B media, which includes all 6A media components plus 50 ng/mL human EGF recombinant protein (Thermo Fisher Scientific, cat. PHG0311). […]

[1] = second compound 0.0316 µM, first compound 0.00316 µM
[2] = second compound 0.0316 µM, first compound 0.01 µM
[3] = second compound 0.0316 µM, first compound 0.0316 µM
[4] = second compound 0.0316 µM, first compound 0.1 µM
[5] = second compound 0.0316 µM, first compound 0.316 µM
[6] = second compound 0.0316 µM, first compound 1 µM
[7] = second compound 0.1 µM, first compound 0.00316 µM
[8] = second compound 0.1 µM, first compound 0.01 µM
[9] = second compound 0.1 µM, first compound 0.0316 µM
[10] = second compound 0.1 µM, first compound 0.1 µM
[11] = second compound 0.1 µM, first compound 0.316 µM
[12] = second compound 0.1 µM, first compound 1 µM
[13] = second compound 0.316 µM, first compound 0.00316 µM
[14] = second compound 0.316 µM, first compound 0.01 µM
[15] = second compound 0.316 µM, first compound 0.0316 µM
[16] = second compound 0.316 µM, first compound 0.1 µM
[17] = second compound 0.316 µM, first compound 0.316 µM
[18] = second compound 0.316 µM, first compound 1 µM
[19] = second compound 1 µM, first compound 0.00316 µM
[20] = second compound 1 µM, first compound 0.01 µM
[21] = second compound 1 µM, first compound 0.0316 µM
[22] = second compound 1 µM, first compound 0.1 µM
[23] = second compound 1 µM, first compound 0.316 µM
[24] = second compound 1 µM, first compound 1 µM
[25] = second compound 3.16 µM, first compound 0.0316 µM
[26] = second compound 3.16 µM, first compound 0.1 µM
[27] = second compound 3.16 µM, first compound 0.316 µM
[28] = second compound 3.16 µM, first compound 1 µM
[29] = second compound 10 µM, first compound 0.0316 µM
[30] = second compound 10 µM, first compound 0.1 µM
[31] = second compound 10 µM, first compound 0.316 µM
[32] = second compound 10 µM, first compound 1 µM
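Also: agents incubated with spheroids for one week before read-out.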
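For viability, T/C in this document: 100% = DMSO vehicle-treated control wells.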

With `CCN1CCN(Cc2ccc(Nc3ncc(F)c(-c4cc(F)c5nc(C)n(C(C)C)c5c4)n3)nc2)CC1` + CC(Nc1ncnc2nc[nH]c12)c1cc2cccc(Cl)c2c(=O)n1-c1ccccc1 the pIC50 (second compound 0.0316 µM) was < 6.00, the pIC50 (second compound 0.1 µM) was < 6.00 and the pIC50 (second compound 0.316 µM) was < 6.00. The pIC50 (second compound 1 µM) was 6.05, the pIC50 (second compound 3.16 µM) was 6.30 and the pIC50 (second compound 10 µM) was 7.20. The viability, T/C [1] was 113%, the viability, T/C [2] was 93.7% and the viability, T/C [3] was 108%. For the same compound, the viability, T/C [4] was 88.6%, the viability, T/C [5] was 76.5% and the viability, T/C [6] was 62.2%. The viability, T/C [7] was 108%, the viability, T/C [8] was 97.8% and the viability, T/C [9] was 108%. The viability, T/C [10] was 86.5%, the viability, T/C [11] was 83.1% and the viability, T/C [12] was 62%. The viability, T/C [13] was 95.2%, the viability, T/C [14] was 112% and the viability, T/C [15] was 109%. The viability, T/C [16] was 94.4%, the viability, T/C [17] was 68.2% and the viability, T/C [18] was 53.7%. The viability, T/C [19] was 97.5%, the viability, T/C [20] was 104% and the viability, T/C [21] was 105%. For the same compound, the viability, T/C [22] was 83.1%, the viability, T/C [23] was 69% and the viability, T/C [24] was 47.3%. For the same compound, the viability, T/C (second compound 3.16 µM, first compound 0.00316 µM) was 98.2%, the viability, T/C (second compound 3.16 µM, first compound 0.01 µM) was 96.6% and the viability, T/C [25] was 89.8%. The viability, T/C [26] was 75.7%, the viability, T/C [27] was 51.5% and the viability, T/C [28] was 46.2%. The viability, T/C (second compound 10 µM, first compound 0.00316 µM) was 81.9%, the viability, T/C (second compound 10 µM, first compound 0.01 µM) was 83.2% and the viability, T/C [29] was 55.2%. The viability, T/C [30] was 44.9%, the viability, T/C [31] was 34.9% and the viability, T/C [32] was 25.9%.

`CCCS(=O)(=O)Nc1ccc(F)c(C(=O)c2c[nH]c3ncc(-c4ccc(Cl)cc4)cc23)c1F` + CC(Nc1ncnc2nc[nH]c12)c1cc2cccc(Cl)c2c(=O)n1-c1ccccc1 gave a pIC50 (second compound 0.0316 µM) of 5.43, a pIC50 (second compound 0.1 µM) of 5.43 and a pIC50 (second compound 0.316 µM) of 5.36. The pIC50 (second compound 1 µM) was 5.33, the pIC50 (second compound 3.16 µM) was 5.37 and the pIC50 (second compound 10 µM) was 5.43. It also gave a viability, T/C [3] of 118%, a viability, T/C [4] of 88.6% and a viability, T/C [5] of 102%. The viability, T/C [6] was 85.9%, the viability, T/C (second compound 0.0316 µM, first compound 3.16 µM) was 59% and the viability, T/C (second compound 0.0316 µM, first compound 10 µM) was 0.26%. It also gave a viability, T/C [9] of 110%, a viability, T/C [10] of 109% and a viability, T/C [11] of 103%. For the same compound, the viability, T/C [12] was 88.1%, the viability, T/C (second compound 0.1 µM, first compound 3.16 µM) was 58.1% and the viability, T/C (second compound 0.1 µM, first compound 10 µM) was 0.13%. It also gave a viability, T/C [15] of 100%, a viability, T/C [16] of 97.9% and a viability, T/C [17] of 90.7%. The viability, T/C [18] was 88.4%, the viability, T/C (second compound 0.316 µM, first compound 3.16 µM) was 70.4% and the viability, T/C (second compound 0.316 µM, first compound 10 µM) was 0.12%. For the same compound, the viability, T/C [21] was 92.8%, the viability, T/C [22] was 98.2% and the viability, T/C [23] was 98%. It also gave a viability, T/C [24] of 91.6%, a viability, T/C (second compound 1 µM, first compound 3.16 µM) of 75% and a viability, T/C (second compound 1 µM, first compound 10 µM) of 0.2%. It also gave a viability, T/C [25] of 89.2%, a viability, T/C [26] of 100% and a viability, T/C [27] of 99.7%. The viability, T/C [28] was 78.2%, the viability, T/C (second compound 3.16 µM, first compound 3.16 µM) was 70% and the viability, T/C (second compound 3.16 µM, first compound 10 µM) was 0.61%. For the same compound, the viability, T/C [29] was 87%, the viability, T/C [30] was 83.4% and the viability, T/C [31] was 77.8%. The viability, T/C [32] was 76.9%, the viability, T/C (second compound 10 µM, first compound 3.16 µM) was 58.2% and the viability, T/C (second compound 10 µM, first compound 10 µM) was 0.42%.

With `Cn1ncnc1[C@H]1c2n[nH]c(=O)c3cc(F)cc(c23)N[C@@H]1c1ccc(F)cc1` + CC(Nc1ccc2c(c1)OCCn1cc(N3C(=O)OCC3C(F)F)nc1-2)C(N)=O the pIC50 (second compound 0.00316 µM) was < 7.00, the pIC50 (second compound 0.01 µM) was < 7.00 and the pIC50 (second compound 0.0316 µM) was < 7.00. For the same compound, the pIC50 (second compound 0.1 µM) was < 7.00, the pIC50 (second compound 0.316 µM) was 7.95 and the pIC50 (second compound 1 µM) was > 9.50. For the same compound, the viability, T/C (second compound 0.00316 µM, first compound 0.000316 µM) was 104%, the viability, T/C (second compound 0.00316 µM, first compound 0.001 µM) was 91.8% and the viability, T/C (second compound 0.00316 µM, first compound 0.00316 µM) was 107%. For the same compound, the viability, T/C (second compound 0.00316 µM, first compound 0.01 µM) was 87.5%, the viability, T/C (second compound 0.00316 µM, first compound 0.0316 µM) was 97.8% and the viability, T/C (second compound 0.00316 µM, first compound 0.1 µM) was 109%. The viability, T/C (second compound 0.01 µM, first compound 0.000316 µM) was 114%, the viability, T/C (second compound 0.01 µM, first compound 0.001 µM) was 92.5% and the viability, T/C (second compound 0.01 µM, first compound 0.00316 µM) was 97%. The viability, T/C (second compound 0.01 µM, first compound 0.01 µM) was 99.4%, the viability, T/C (second compound 0.01 µM, first compound 0.0316 µM) was 100% and the viability, T/C (second compound 0.01 µM, first compound 0.1 µM) was 104%. The viability, T/C (second compound 0.0316 µM, first compound 0.000316 µM) was 96.4%, the viability, T/C (second compound 0.0316 µM, first compound 0.001 µM) was 92.3% and the viability, T/C [1] was 90.6%. It also gave a viability, T/C [2] of 88.3%, a viability, T/C [3] of 96% and a viability, T/C [4] of 91.8%. It also gave a viability, T/C (second compound 0.1 µM, first compound 0.000316 µM) of 74.7%, a viability, T/C (second compound 0.1 µM, first compound 0.001 µM) of 72.9% and a viability, T/C [7] of 55.5%. For the same compound, the viability, T/C [8] was 69%, the viability, T/C [9] was 78% and the viability, T/C [10] was 80.8%. It also gave a viability, T/C (second compound 0.316 µM, first compound 0.000316 µM) of 56.4%, a viability, T/C (second compound 0.316 µM, first compound 0.001 µM) of 56% and a viability, T/C [13] of 42.4%. For the same compound, the viability, T/C [14] was 56.1%, the viability, T/C [15] was 54.6% and the viability, T/C [16] was 40.7%. The viability, T/C (second compound 1 µM, first compound 0.000316 µM) was 39.1%, the viability, T/C (second compound 1 µM, first compound 0.001 µM) was 36.7% and the viability, T/C [19] was 35.7%. For the same compound, the viability, T/C [20] was 35.6%, the viability, T/C [21] was 33.5% and the viability, T/C [22] was 27.2%.
